These results are taken from PubChem BioAssay AID192 (DTP/NCI, 2004).

The subject of the experiment is BDF1 mice, B16 melanoma ip, median survival T/C. Briefly: NCI In Vivo Anticancer Drug Screen. Data for tumor model B16 Melanoma (intraperitoneal) in B6D2F1 (BDF1) mice. The note with it: endpoint: median survival time, higher = longer survival. The essentials:
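Mice with transplantable tumors; drug vs vehicle groups; endpoint survival or tumor size; value = T/C.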

Where [1] appears, read: dose: 25.0 mg/kg/injection, schedule: Q01DX009 (ip), vehicle: Klucel (hydroxypropylcellulose) (HPC).
Setting [2] is: dose: 50.0 mg/kg/injection, schedule: Q01DX009 (ip), vehicle: Klucel (hydroxypropylcellulose) (HPC).
The mark [3] stands for this setting: dose: 100.0 mg/kg/injection, schedule: Q01DX009 (ip), vehicle: Klucel (hydroxypropylcellulose) (HPC).
Where [4] appears, read: dose: 12.5 mg/kg/injection, schedule: Q01DX009 (ip), vehicle: Klucel (hydroxypropylcellulose) (HPC).
Where [5] appears, read: dose: 3.12 mg/kg/injection, schedule: Q01DX009 (ip), vehicle: Klucel (hydroxypropylcellulose) (HPC).
Where [6] appears, read: dose: 25.0 mg/kg/injection, schedule: Q01DX009 (ip), vehicle: saline.
Setting [7] is: dose: 50.0 mg/kg/injection, schedule: Q01DX009 (ip), vehicle: saline.
[8] abbreviates: dose: 100.0 mg/kg/injection, schedule: Q01DX009 (ip), vehicle: saline with Tween-80.
The mark [9] stands for this setting: dose: 100.0 mg/kg/injection, schedule: Q01DX009 (ip), vehicle: saline.
[10] abbreviates: dose: 200.0 mg/kg/injection, schedule: Q01DX009 (ip), vehicle: Klucel (hydroxypropylcellulose) (HPC).
Where [11] appears, read: dose: 6.25 mg/kg/injection, schedule: Q01DX009 (ip), vehicle: Klucel (hydroxypropylcellulose) (HPC).
Where [12] appears, read: dose: 100.0 mg/kg/injection, schedule: Q04DX003 (ip), vehicle: saline with Tween-80.
Where [13] appears, read: dose: 200.0 mg/kg/injection, schedule: Q04DX003 (ip), vehicle: saline with Tween-80.
Setting [14] is: dose: 400.0 mg/kg/injection, schedule: Q04DX003 (ip), vehicle: saline with Tween-80.

Values joined by “and” are separate entries in the source; they are usually repeats but may differ in a detail not shown here. Identical values can stand only once. Inconclusive results and toxic doses are left out.

For `C1CN1c1nc(N2CC2)nc(N2CC2)n1`, the T/C reads like this: (dose: 0.05 mg/kg/injection, schedule: Q01DX009 (ip), vehicle: saline) 97 % of control and 108 % of control; (dose: 0.06 mg/kg/injection, schedule: Q01DX009 (ip), vehicle: saline) 103 % of control; (dose: 0.06 mg/kg/injection, schedule: Q01DX009 (ip), vehicle: suspension in saline) 103 % of control; (dose: 0.1 mg/kg/injection, schedule: Q01DX009 (ip), vehicle: saline) 103 % of control and 109 % of control and 120 % of control; (dose: 0.12 mg/kg/injection, schedule: Q01DX009 (ip), vehicle: saline with Tween-80) 107 % of control; (dose: 0.12 mg/kg/injection, schedule: Q01DX009 (ip), vehicle: suspension in saline) 100 % of control. The T/C is 94 % of control and 96 % of control (dose: 0.13 mg/kg/injection, schedule: Q01DX009 (ip), vehicle: saline sonified); 102 % of control and 105 % of control (dose: 0.13 mg/kg/injection, schedule: Q01DX009 (ip), vehicle: saline with Tween-80); 96 % of control and 100 % of control (dose: 0.25 mg/kg/injection, schedule: Q01DX009 (ip), vehicle: saline sonified); 107 % of control and 108 % of control and 119 % of control (dose: 0.25 mg/kg/injection, schedule: Q01DX009 (ip), vehicle: saline with Tween-80); 108 % of control (dose: 0.25 mg/kg/injection, schedule: Q01DX009 (ip), vehicle: suspension in saline); 150 % of control (dose: 0.3 mg/kg/injection, schedule: Q01DX009 (ip), vehicle: saline). In addition, the T/C is, setting by setting: (dose: 0.5 mg/kg/injection, schedule: Q01DX009 (ip), vehicle: saline sonified) 96 % of control and 101 % of control; (dose: 0.5 mg/kg/injection, schedule: Q01DX009 (ip), vehicle: saline with Tween-80) 105 % of control and 114 % of control and 119 % of control; (dose: 0.5 mg/kg/injection, schedule: Q01DX009 (ip), vehicle: suspension in saline) 124 % of control; (dose: 0.5 mg/kg/injection, schedule: Q08DX002 (ip), vehicle: saline sonified) 98 % of control and 103 % of control; (dose: 0.5 mg/kg/injection, schedule: Q08DX002 (ip), vehicle: saline with Tween-80) 100 % of control and 119 % of control; (dose: 1.0 mg/kg/injection, schedule: Q01DX009 (ip), vehicle: suspension in saline) 109 % of control. The T/C (dose: 1.0 mg/kg/injection, schedule: Q08DX002 (ip), vehicle: saline sonified) was 108 % of control and 114 % of control; the T/C (dose: 1.0 mg/kg/injection, schedule: Q08DX002 (ip), vehicle: saline with Tween-80) is 102 % of control and 113 % of control and 116 % of control; the T/C (dose: 2.0 mg/kg/injection, schedule: Q08DX002 (ip), vehicle: saline sonified) was 105 % of control; the T/C (dose: 2.0 mg/kg/injection, schedule: Q08DX002 (ip), vehicle: saline with Tween-80) was 123 % of control; the T/C (dose: 4.0 mg/kg/injection, schedule: Q08DX002 (ip), vehicle: saline with Tween-80) was 90 % of control and 105 % of control.

Take `CC(=O)C(N=Nc1ccccc1)C(C)=O`: the T/C is 100 % of control under setting [1], 113 % of control under setting [2] and 113 % of control under setting [3].

Take `CCOc1ccc(N2C(=O)CSC2=S)cc1`: the T/C under setting [4] is 103 % of control, the T/C under setting [1] was 91 % of control and the T/C under setting [2] is 95 % of control.

For `C[n+]1ccc(C#N)c2ccccc21`, the T/C reads like this: (dose: 3.75 mg/kg/injection, schedule: Q01DX009 (ip), vehicle: saline) 102 % of control; (dose: 7.5 mg/kg/injection, schedule: Q01DX009 (ip), vehicle: saline) 93 % of control.

For the compound `CN(C)S(=O)(=O)c1ccc2c(c1)N(CCCN1CCN(S(C)(=O)=O)CC1)c1ccccc1S2`, the T/C is 87 % of control (dose: 0.78 mg/kg/injection, schedule: Q01DX009 (ip), vehicle: Klucel (hydroxypropylcellulose) (HPC)); 90 % of control (dose: 1.56 mg/kg/injection, schedule: Q01DX009 (ip), vehicle: Klucel (hydroxypropylcellulose) (HPC)); 90 % of control under setting [5]; 95 % of control under setting [4].

As to `C#CCOCC(O)CCl` (configuration not stated), the T/C is 94 % of control under setting [6], 105 % of control under setting [7], 95 % of control under setting [8] and 89 % of control under setting [9].

In the case of `CC1=CCC(C(C)C)C=C1` (configuration not stated), the T/C reads like this: under setting [1], 92 % of control; under setting [2], 94 % of control; under setting [3], 94 % of control; under setting [10], 89 % of control.

As to `CCC[CH2][Sn]([CH2]CCC)[CH2]CCC.CCC[CH2][Sn]([CH2]CCC)[CH2]CCC`, the T/C (dose: 5.0 mg/kg/injection, schedule: Q01DX009 (ip), vehicle: Klucel (hydroxypropylcellulose) (HPC)) was 109 % of control.

Consider `CNC(=S)N/N=C(\C=N\NC(=S)NC)c1ccc(C)cc1`, for which the T/C reads like this: under setting [2], 101 % of control; under setting [3], 90 % of control; under setting [10], 89 % of control.

As to `CCSC(=O)N1c2ccc(OC)cc2C=CC1C#N` (configuration not stated), under setting [8], the T/C was 121 % of control.

Take `CN(C)NCCC#N`: the T/C was 101 % of control (dose: 33.0 mg/kg/injection, schedule: Q01DX009 (ip), vehicle: saline); 104 % of control under setting [7]; 104 % of control and 206 % of control (dose: 75.0 mg/kg/injection, schedule: Q01DX009 (ip), vehicle: saline); 100 % of control (dose: 113.0 mg/kg/injection, schedule: Q01DX009 (ip), vehicle: saline).

As to `CC(CCOCC1CO1)OCC1CO1` (configuration not stated), the T/C reads like this: (dose: 100.0 mg/kg/injection, schedule: Q04DX003 (ip), vehicle: saline) 100 % of control; (dose: 200.0 mg/kg/injection, schedule: Q04DX003 (ip), vehicle: saline) 108 % of control; (dose: 400.0 mg/kg/injection, schedule: Q04DX003 (ip), vehicle: saline) 110 % of control.

For `CCCCCCC(C)NCC(O)COc1cccc(C)c1` (configuration not stated), the T/C is, setting by setting: under setting [5], 90 % of control; under setting [11], 94 % of control; under setting [4], 89 % of control.

`CC1C=CC(C(N)C(=O)O)O1` (configuration not stated): the T/C by setting is: (dose: 12.5 mg/kg/injection, schedule: Q01DX009 (ip), vehicle: saline) 97 % of control; under setting [6], 92 % of control.

`CCOC(=O)Nc1ccccc1`: the T/C (dose: 100.0 mg/kg/injection, schedule: Q04DX003 (ip), vehicle: gum acacia) is 95 % of control and the T/C (dose: 200.0 mg/kg/injection, schedule: Q04DX003 (ip), vehicle: gum acacia) was 102 % of control.

Turning to `CN=C(N)N/N=C(\C)c1ccc2c(c1)Cc1ccccc1-2`, the T/C (dose: 12.5 mg/kg/injection, schedule: Q01DX009 (ip), vehicle: saline with Tween-80) was 110 % of control; the T/C (dose: 25.0 mg/kg/injection, schedule: Q01DX009 (ip), vehicle: saline with Tween-80) was 115 % of control; the T/C (dose: 50.0 mg/kg/injection, schedule: Q01DX009 (ip), vehicle: saline with Tween-80) was 120 % of control; the T/C under setting [8] is 112 % of control.

As for `Nc1ccn(C2OC(CO)C(O)C2O)c(=O)n1` (configuration not stated), the T/C runs as follows: (dose: 6.25 mg/kg/injection, schedule: Q01DX009 (ip), vehicle: saline) 120 % of control; under setting [6], 98 % of control; (dose: 80.0 mg/kg/injection, schedule: Q01DX009 (ip), vehicle: saline) 71 % of control; under setting [9], 97 % of control; under setting [12], 100 % of control; (dose: 200.0 mg/kg/injection, schedule: Q01DX009 (ip), vehicle: saline) 94 % of control. The T/C reads like this: under setting [13], 92 % of control; (dose: 250.0 mg/kg/injection, schedule: Q04DX009 (ip), vehicle: saline) 100 % of control; under setting [14], 92 % of control.

With `Cc1cc(CCl)c(C)c(Br)c1C`, the T/C runs as follows: under setting [11], 97 % of control; under setting [4], 119 % of control; under setting [1], 105 % of control; under setting [2], 105 % of control.

For `Cc1cc(=O)[nH]c(N/N=C/c2ccc(N(C)C)cc2)n1`, the T/C is, setting by setting: under setting [8], 100 % of control; (dose: 200.0 mg/kg/injection, schedule: Q01DX009 (ip), vehicle: saline with Tween-80) 95 % of control; (dose: 400.0 mg/kg/injection, schedule: Q01DX009 (ip), vehicle: saline with Tween-80) 97 % of control.

On to `COc1ccc(N=C=Nc2ccc(OC)cc2)cc1`, for which the T/C under setting [4] is 93 % of control and the T/C under setting [1] is 91 % of control.

With `O=Cc1ccc(C(=O)O)cc1`, the T/C runs as follows: under setting [12], 93 % of control; under setting [13], 93 % of control; under setting [14], 86 % of control.
